Measured values taken from PMC7127602 (Bioorganic & Medicinal Chemistry, 2007).

Target: SARS-CoV M^pro (Severe acute respiratory syndrome coronavirus, UniProt P0C6X7)
Format: biochemical

Row | SMILES | Increase in IC50 relative to compound 2
1 | O=C(Oc1cncc(Cl)c1)c1ccc(-c2cccc([N+](=O)[O-])c2)o1 [compound 5] | eightfold
2 | O=C(Oc1cncc(Cl)c1)c1ccc(-c2ccccc2[N+](=O)[O-])o1 [compound 4] | threefold
